US10076519B2 (CYTOKINETICS, INC., priority 2010, dated 2018)

Each compound was assayed on rabbit skeletal myofibrils (fast skeletal myofibrils) (assay: Activation of fast skeletal myofibrils (PUMA assay, PK/LDH-coupled ATPase at pCa25)). Details: median AC1.4 class, procedure of Example 39.
Assay type: biochemical
Description: Preparation of Fast Skeletal Myofibrils.
Rabbit skeletal myofibrils were prepared based upon the method of Herrmann et al. (Biochem. 32(28):7255-7263(1993). Myofibrils were prepared from rabbit psoas muscle purchased from Pel-Freez Biologicals (Arkansas) within 2 days of ordering, stored on ice. Minced muscle was homogenized in 10 volumes of ice-cold “standard” buffer (50 mM Tris, pH 7.4, 0.1M potassium acetate, 5 mM KCl, 2 mM DTT, 0.2 mM PMSF, 10 μM leupeptin, 5 μM pepstatin, and 0.5 mM sodium azide) containing 5 mM EDTA and 0.5% Triton X-100 using an Omni-Macro homogenizer. Myofibrils were recovered by low speed centrifugation (3000 rpm for 10 minutes) and washed 2 times in the Triton X-100 containing buffer to ensure removal of cellular membrane. Following the Triton washes, myofibrils were washed 3 times in “standard” buffer containing 2 mM magnesium acetate. A final wash in assay buffer (12 mM PIPES, pH 6.8, 60 mM KCl, 1 mM DTT) was performed and brought to 10% sucrose for flash freezing in liquid nitrogen and storage at −80° C.
Activation of Fast Skeletal Myofibrils.
Fast fiber activators were identified by measuring the enzymatic activity of muscle myofibril preparations using the proprietary PUMA™ (see, e.g., U.S. Pat. Nos. 6,410,254, 6,743,599, 7,202,051, and 7,378,254) assay system. Myofibril preparations consisted of rabbit skeletal muscle (approximately 90% fast fibers) that had been mechanically homogenized and washed with a detergent (triton X-100) to remove cellular membranes. This preparation retained all of the sarcomeric components in a native conformation and the enzymatic activity was still regulated by calcium. Compounds were tested using a myofibril suspension and a level of calcium sufficient to increase enzymatic activity of the myofibrils to 25% of their maximal rate (termed pCa25). Enzymatic activity was tracked via a pyruvate kinase and lactate dehydrogenase-coupled enzyme system. This assay regenerates myosin-produced ADP into ATP by oxidizing NADH, producing an absorbance change at 340 nm. The buffering system was 12 mM Pipes, 2 mM MgCl2, 1 mM DTT at pH 6.8 (PM12 buffer).
Using procedures similar to those described herein, utilizing reagents and intermediates commercially available (e.g., Sigma-Aldrich, St. Louis, Mo.) or readily synthesized by one of skill in the art, the compounds in Table 2 were synthesized, characterized and tested. AC1.4 values were determined according to the procedure described in Example 39, and the reported median AC1.4 values are as follows: A=<1 uM; B=1-10 uM; C=10-20 uM; D=>20 uM.

Mean AC1.4 | Compound
D (D=>20 uM) | CC(=O)c1ccc(NCC2(c3ncccc3F)CCC2)nn1
D (D=>20 uM) | NC(=O)c1cnn(Cc2ccc(NC3(c4ncccc4F)CCC3)nn2)c1
D (D=>20 uM) | CC(=O)N1CC(c2ccc(NCC3(c4ncccc4F)CCC3)nn2)C1
D (D=>20 uM) | CC(C)(O)C(N)c1ccc(-c2ccc(NCC3(c4ncccc4F)CCC3)nn2)cc1 (stereo not shown)
D (D=>20 uM) | CC(C)(O)c1ncccc1-c1ccc(NCC2(c3ncccc3F)CCC2)nn1
D (D=>20 uM) | O=C(O)C1CN=C(c2ccc(NCC3(c4ncccc4F)CCC3)nn2)N1 (stereo not shown)
D (D=>20 uM) | NC(=O)c1coc(-c2ccc(NCC3(c4ncccc4F)CCC3)nn2)n1
B (B=1-10 uM) | NC(=O)c1cnc(-c2ccc(NCC3(c4ncccc4F)CCC3)nn2)o1
D (D=>20 uM) | NC(=O)c1csc(-c2ccc(NCC3(c4ncccc4F)CCC3)nn2)n1
D (D=>20 uM) | NC(=O)C1CN=C(c2ccc(NCC3(c4ncccc4F)CCC3)nn2)N1 (stereo not shown)
D (D=>20 uM) | CC(C)(O)c1ccc(NCC2(c3ncccc3F)CCC2)nn1
C (C=10-20 uM) | NC(=O)CNc1ncc(-c2ccc(NCC3(c4ncccc4F)CCC3)nn2)cn1
C (C=10-20 uM) | NC(=O)C(N)c1cccc(-c2ccc(NCC3(c4ncccc4F)CCC3)nn2)c1 (stereo not shown)
D (D=>20 uM) | NC(=O)c1cccc(-c2ccc(NC3(c4ncccc4OC(F)F)CCC3)nn2)c1
C (C=10-20 uM) | NC(=O)c1ccc(F)c(-c2ccc(NC3(c4ncccc4OC(F)F)CCC3)nn2)c1
B (B=1-10 uM) | NC(=O)c1cccc(-c2ccc(NCC3(c4ncccc4F)CC(F)(F)C3)nn2)c1
A (A=<1 uM) | NC(=O)c1cccc(-c2ccc(NC3(c4ccc(F)cc4)CCC3)nn2)c1
D (D=>20 uM) | NC(=O)c1ccc(F)c(-c2ccc(NC3(c4ccc(OC(F)F)cn4)CCC3)nn2)c1
B (B=1-10 uM) | NC(=O)c1cc(-c2ccc(NCC3(c4ncccc4F)CCC3)nn2)n[nH]1
A (A=<1 uM) | NC(=O)c1cc(-c2ccc(NCC3(c4ncccc4F)CCC3)nn2)no1
C (C=10-20 uM) | NC(=O)c1ncccc1-c1ccc(NCC2(c3ncccc3F)CCC2)nn1
C (C=10-20 uM) | N#Cc1ncccc1-c1ccc(NCC2(c3ncccc3F)CCC2)nn1
D (D=>20 uM) | NC(=O)N1CC(c2ccc(NCC3(c4ncccc4F)CCC3)nn2)C1
B (B=1-10 uM) | Cn1nc(-c2ccc(NCC3(c4ncccc4F)CCC3)nn2)cc1C(N)=O
C (C=10-20 uM) | NC(=O)c1nc(-c2ccc(NCC3(c4ncccc4F)CCC3)nn2)c[nH]1
D (D=>20 uM) | Cn1cc(-c2ccc(NCC3(c4ncccc4F)CCC3)nn2)nc1C(N)=O
B (B=1-10 uM) | COc1cc(-c2ccc(NCC3(c4ncccc4F)CCC3)nn2)ccc1C(N)=O

Mean AC1.4 | Compound
D (D=>20 uM) | COc1cc(-c2ccc(NCC3(c4ncccc4F)CCC3)nn2)ccc1C(=O)O
B (B=1-10 uM) | NC(=O)c1ccc(-c2ccc(NCC3(c4ncccc4F)CCC3)nn2)cc1O
B (B=1-10 uM) | N#Cc1ccc(F)c(-c2ccc(NC3(c4ncccc4F)CCC3)nn2)c1
A (A=<1 uM) | NC(=O)c1ccc(F)c(-c2ccc(NC3(c4ncccc4F)CCCC3)nn2)c1
D (D=>20 uM) | NC(=O)c1ccc(F)c(-c2ccc(NC3(c4ccc(O)cn4)CCC3)nn2)c1
D (D=>20 uM) | COc1ccc(C2(Nc3ccc(-c4cc(C(N)=O)ccc4F)nn3)CCC2)nc1
D (D=>20 uM) | CC1(Nc2ccc(-c3cc(C(N)=O)ccc3F)nn2)CCC1
B (B=1-10 uM) | O=C1Cc2cc(-c3ccc(NCC4(c5ncccc5F)CCC4)nn3)ccc2N1
A (A=<1 uM) | O=c1[nH][nH]c2ccc(-c3ccc(NCC4(c5ncccc5F)CCC4)nn3)cc12
B (B=1-10 uM) | NC(=O)c1ncc(-c2ccc(NCC3(c4ncccc4F)CCC3)nn2)o1
B (B=1-10 uM) | NC(=O)c1cc(-c2ccc(NCC3(c4ncccc4F)CCC3)nn2)on1
D (D=>20 uM) | O=C(O)c1cc(-c2ccc(NCC3(c4ncccc4F)CCC3)nn2)on1
B (B=1-10 uM) | NC(=O)c1noc(-c2ccc(NCC3(c4ncccc4F)CCC3)nn2)n1
B (B=1-10 uM) | COc1ccc(-c2ccc(NCC3(c4ncccc4F)CCC3)nn2)cc1C(N)=O
C (C=10-20 uM) | CC(C)n1[nH]c(=O)c2cc(-c3ccc(NCC4(c5ncccc5F)CCC4)nn3)ccc21
B (B=1-10 uM) | CC(C)n1[nH]c2ccc(-c3ccc(NCC4(c5ncccc5F)CCC4)nn3)cc2c1=O
A (A=<1 uM) | NC(=O)c1cc(-c2ccc(NCC3(c4ncccc4F)CCC3)nn2)ccc1O
B (B=1-10 uM) | Cn1nc(C(N)=O)cc1-c1ccc(NCC2(c3ncccc3F)CCC2)nn1
D (D=>20 uM) | COc1ccc(-c2ccc(NCC3(c4ncccc4F)CCC3)nn2)cc1C(=O)O
A (A=<1 uM) | Oc1ccc(-c2ccc(NCC3(c4ncccc4F)CCC3)nn2)nc1
B (B=1-10 uM) | O=C1Cc2ccc(-c3ccc(NCC4(c5ncccc5F)CCC4)nn3)cc2N1
A (A=<1 uM) | CNC(=O)Nc1cccc(-c2ccc(NCC3(c4ncccc4F)CCC3)nn2)c1
A (A=<1 uM) | CC(=O)Nc1ccc(-c2ccc(NCC3(c4ncccc4F)CCC3)nn2)cc1
A (A=<1 uM) | CNC(=O)Nc1ccc(-c2ccc(NCC3(c4ncccc4F)CCC3)nn2)cc1
C (C=10-20 uM) | CC(=O)Nc1ncc(-c2ccc(NCC3(c4ncccc4F)CCC3)nn2)cn1
D (D=>20 uM) | COC(=O)Nc1ncc(-c2ccc(NCC3(c4ncccc4F)CCC3)nn2)cn1
D (D=>20 uM) | NC(=O)[C@H]1C[C@@H]1c1ccc(NCC2(c3ncccc3F)CCC2)nn1

Mean AC1.4 | Compound
D (D=>20 uM) | NC(=O)[C@@H]1C[C@@H]1c1ccc(NCC2(c3ncccc3F)CCC2)nn1
C (C=10-20 uM) | CS(=O)(=O)Nc1cccc(-c2ccc(NC3(c4ncccc4OC(F)F)CCC3)nn2)c1
C (C=10-20 uM) | OCc1ncccc1-c1ccc(NCC2(c3ncccc3F)CCC2)nn1
D (D=>20 uM) | CS(=O)(=O)Nc1ncc(-c2ccc(NCC3(c4ncccc4F)CCC3)nn2)cn1
B (B=1-10 uM) | CC(C)(Nc1ccc(-c2ccc(N)nc2)nn1)c1ccccc1
D (D=>20 uM) | Fc1cccnc1C1(CNc2ccc(-c3ccc(NCC4(c5ncccc5F)CCC4)nn3)nn2)CCC1
C (C=10-20 uM) | NC(=O)NC1CC(c2ccc(NCC3(c4ncccc4F)CCC3)nn2)C1 (stereo not shown)
B (B=1-10 uM) | NC(=O)N[C@H]1C[C@@H](c2ccc(NCC3(c4ncccc4F)CCC3)nn2)C1
A (A=<1 uM) | NC(=O)Nc1ccc(-c2ccc(NC3(c4ccc(F)cc4)CCC3)nn2)cc1
A (A=<1 uM) | NC(=O)Nc1ccc(-c2ccc(NCC3(c4ncccc4F)CCC3)nn2)cc1
B (B=1-10 uM) | NC(=O)NC1CC=C(c2ccc(NCC3(c4ncccc4F)CCC3)nn2)CC1 (stereo not shown)
B (B=1-10 uM) | NC(=O)Nc1ccc(-c2ccc(NCC3(c4ncccc4F)CCC3)nn2)cn1
D (D=>20 uM) | NC(=O)Nc1ncc(-c2ccc(NCC3(c4ncccc4F)CCC3)nn2)cn1
A (A=<1 uM) | NC(=O)Nc1n[nH]c2ccc(-c3ccc(NCC4(c5ncccc5F)CCC4)nn3)cc12
D (D=>20 uM) | CCOC(=O)C(C(=O)OCC)c1ccc(NCC2(c3ncccc3F)CCC2)nn1
D (D=>20 uM) | CCOC(=O)c1cc(-c2ccc(NCC3(c4ncccc4F)CCC3)nn2)on1
D (D=>20 uM) | CCOC(=O)c1ccc(NCC2(c3ncccc3F)CCC2)nn1
D (D=>20 uM) | CCOC(=O)/C=C/c1ccc(NC2(c3ncccc3F)CCC2)nn1
D (D=>20 uM) | CCOC(=O)/C=C/c1ccc(NCC2(c3ncccc3F)CCC2)nn1
D (D=>20 uM) | COC(=O)c1coc(-c2ccc(NCC3(c4ncccc4F)CCC3)nn2)n1
D (D=>20 uM) | COC(=O)C1CN=C(c2ccc(NCC3(c4ncccc4F)CCC3)nn2)N1 (stereo not shown)
D (D=>20 uM) | COC(=O)N1CC(c2ccc(NCC3(c4ncccc4F)CCC3)nn2)C1
C (C=10-20 uM) | COC(=O)c1ncccc1-c1ccc(NCC2(c3ncccc3F)CCC2)nn1
D (D=>20 uM) | O=C(OCc1ccccc1)N1CC(c2ccc(NCC3(c4ncccc4F)CCC3)nn2)C1
D (D=>20 uM) | CC(C)(C)OC(=O)N1CCN(c2ncc(-c3ccc(NCC4(c5ncccc5F)CCC4)nn3)cn2)CC1
